Experimental findings from the supplement of paper PMC12137928 are described below.

Counter-ions that a name gives are not always drawn. Bounds are passed on as bounds.

This experiment has as its system HCT116. The conditions noted are these: 72 h. The gist of the method: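 HCT116 cells went into 1536-well plates at 250 per well. CellTiter-Glo luminescence was expressed relative to vehicle (0%) and positive control (-100%) and then pattern-corrected. Both IC50 and maximal efficacy were taken from four-parameter Hill fits.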

Take `C[C@]12CC[C@@H]3c4ccc(O)cc4C[C@@H](CCCCCCCCC[S+]([O-])CCCC(F)(F)C(F)(F)F)[C@H]3[C@@H]1CC[C@@H]2O` (stereo partly drawn) [Fulvestrant]: the IC50 cell viability was over 45.8 µM (ICRF193 0 nM) and over 45.8 µM (ICRF193 200 nM).

As for `COP(=S)(OC)Oc1ccc(S(=O)(=O)N(C)C)cc1` [Famphur], the IC50 cell viability by setting is: (ICRF193 0 nM) over 45.8 µM; (ICRF193 200 nM) over 45.8 µM.

Consider `Nc1ccccc1C(=O)OCC(O)CO` (stereo not drawn) [Glyceryl 1-(2-aminobenzoate)], for which the IC50 cell viability runs as follows: (ICRF193 0 nM) over 45.8 µM; (ICRF193 200 nM) over 45.8 µM.

`Cc1ccc(Sc2ccccc2N2CCNCC2)c(C)c1` [Brintellix]: the IC50 cell viability was over 45.8 µM (ICRF193 0 nM) and over 45.8 µM (ICRF193 200 nM).

Compound `O=c1n(CCCN2CCN(c3cccc(Cl)c3)CC2)nc2ccccn12` [Trazodone hydrochloride] showed an IC50 cell viability (ICRF193 0 nM) of over 45.8 µM and an IC50 cell viability (ICRF193 200 nM) of over 45.8 µM.

For `C[C@@H]1C[C@H]2[C@@H]3C[C@H](F)C4=CC(=O)C=C[C@]4(C)[C@@]3(F)[C@@H](O)C[C@]2(C)[C@@]1(O)C(=O)CO` [Flumethasone], the IC50 cell viability is over 45.8 µM (ICRF193 0 nM) and over 45.8 µM (ICRF193 200 nM).

Take `COc1cc(C(=O)NC2CCCNC2)cc(OC)c1OC` (stereo not drawn) [Troxipide]: the IC50 cell viability is, setting by setting: (ICRF193 0 nM) over 45.8 µM; (ICRF193 200 nM) over 45.8 µM.

The compound `COc1ccc2c(c1OC)C(=O)O[C@@H]2[C@H]1c2c(cc3c(c2OC)OCO3)CCN1C` [Noscapine] returned an IC50 cell viability (ICRF193 0 nM) of over 45.8 µM and an IC50 cell viability (ICRF193 200 nM) of over 45.8 µM.

Turning to `COc1ccc(NS(=O)(=O)c2ccc(N)cc2)nn1` [Sulfamethoxypyridazine], the IC50 cell viability reads like this: (ICRF193 0 nM) over 45.8 µM; (ICRF193 200 nM) over 45.8 µM.

As for `CCCCCCCC/C=C/CCCCCCCC(=O)O` [Elaidic Acid], the IC50 cell viability was over 45.8 µM (ICRF193 0 nM) and over 45.8 µM (ICRF193 200 nM).

Take `CC(C)(C)c1nnc(NS(=O)(=O)c2ccccc2)s1` [Glybuzole]: the IC50 cell viability is over 45.8 µM (ICRF193 0 nM) and over 45.8 µM (ICRF193 200 nM).

Regarding `FC(F)(F)C(F)(F)C(F)(F)C(F)(F)C(F)(F)F` [Perflenapent], the IC50 cell viability was over 45.8 µM (ICRF193 0 nM) and over 45.8 µM (ICRF193 200 nM).

As to `CS(=O)(=O)Nc1cc2occ(NC=O)c(=O)c2cc1Oc1ccccc1` [Iguratimod], the IC50 cell viability was over 45.8 µM (ICRF193 0 nM) and over 45.8 µM (ICRF193 200 nM).

`CC[N+](CC)(CC)CCC(O)(c1ccccc1)C1CCCCC1` (stereo not drawn) [Tridihexethyl chloride]: the IC50 cell viability is over 45.8 µM (ICRF193 0 nM) and over 45.8 µM (ICRF193 200 nM).

Consider `CC(C)(Oc1ccc(CCNC(=O)c2ccc(Cl)cc2)cc1)C(=O)O` [Bezafibrate], for which the IC50 cell viability (ICRF193 0 nM) is over 45.8 µM and the IC50 cell viability (ICRF193 200 nM) is over 45.8 µM.

As to `Cn1nnnc1SCC1=C(C(=O)O)N2C(=O)[C@@H](NC(=O)[C@H](OC=O)c3ccccc3)[C@H]2SC1` [Cefamandole (nafate)], the IC50 cell viability by setting is: (ICRF193 0 nM) over 45.8 µM; (ICRF193 200 nM) over 45.8 µM.

Compound `C[C@]12CC[C@@H]3c4ccc(O)cc4CC[C@H]3[C@@H]1CCC2=O` [Estrone] returned an IC50 cell viability (ICRF193 0 nM) of over 45.8 µM and an IC50 cell viability (ICRF193 200 nM) of over 45.8 µM.

`CC(C)=CCC1C(=O)N(c2ccccc2)N(c2ccccc2)C1=O` [Feprazone]: the IC50 cell viability is over 45.8 µM (ICRF193 0 nM) and over 45.8 µM (ICRF193 200 nM).

`Cn1c(=O)c2[nH]cnc2n(C)c1=O` [Theophyllamine]: the IC50 cell viability reads like this: (ICRF193 0 nM) over 45.8 µM; (ICRF193 200 nM) over 45.8 µM.

Turning to `Nc1ccc(S(=O)(=O)Nc2nccs2)cc1` [Sulfathiazole], the IC50 cell viability reads like this: (ICRF193 0 nM) over 45.8 µM; (ICRF193 200 nM) over 45.8 µM.

Turning to `CCC(=O)NC[C@@H]1C[C@H]1c1cccc2c1CCO2` [Tasimelteon], the IC50 cell viability runs as follows: (ICRF193 0 nM) over 45.8 µM; (ICRF193 200 nM) over 45.8 µM.

In the case of `CCCCS(=O)(=O)N[C@@H](Cc1ccc(OCCCCC2CCNCC2)cc1)C(=O)O` [Tirofiban hydrochloride monohydrate], the IC50 cell viability (ICRF193 0 nM) is over 45.8 µM and the IC50 cell viability (ICRF193 200 nM) was over 45.8 µM.

For `CO/N=C(/C(=O)N[C@@H]1C(=O)N2C(C(=O)OCOC(=O)C(C)(C)C)=C(C)CS[C@H]12)c1csc(N)n1` [Cefetamet pivoxil HCl], the IC50 cell viability was over 45.8 µM (ICRF193 0 nM) and over 45.8 µM (ICRF193 200 nM).

For `CCC(C)C(C)(COC(N)=O)COC(N)=O` (stereo not drawn) [Mebutamate], the IC50 cell viability is over 45.8 µM (ICRF193 0 nM) and over 45.8 µM (ICRF193 200 nM).

`CC(C(=O)O)c1ccc(-c2ccccc2)c(F)c1` (stereo not drawn) [Flurbiprofen]: the IC50 cell viability by setting is: (ICRF193 0 nM) over 45.8 µM; (ICRF193 200 nM) over 45.8 µM.

Turning to `COc1ccnc2c1CCCCC2[S+]([O-])c1nc2ccccc2[nH]1` (stereo not drawn) [Nepaprazole], the IC50 cell viability is, setting by setting: (ICRF193 0 nM) over 45.8 µM; (ICRF193 200 nM) over 45.8 µM.

With `C[N+]1(C)CCN(CC(O)(c2ccccc2)C2CCCCC2)CC1` (stereo not drawn) [Hexocyclium], the IC50 cell viability reads like this: (ICRF193 0 nM) over 45.8 µM; (ICRF193 200 nM) over 45.8 µM.

With `O=C1[C@H](CC[C@H](O)c2ccc(F)cc2)[C@@H](c2ccc(O)cc2)N1c1ccc(F)cc1` [Ezetimibe], the IC50 cell viability reads like this: (ICRF193 0 nM) over 45.8 µM; (ICRF193 200 nM) over 45.8 µM.

Regarding `CC(C)(C)NC[C@H](O)COc1nsnc1N1CCOCC1` [(S)-Timolol], the IC50 cell viability reads like this: (ICRF193 0 nM) over 45.8 µM; (ICRF193 200 nM) over 45.8 µM.

Regarding `O=C1NC(=O)C(c2ccccc2)(c2ccccc2)N1` [5,5-Diphenylhydantoin], the IC50 cell viability is over 45.8 µM (ICRF193 0 nM) and over 45.8 µM (ICRF193 200 nM).

As for `COC(=O)N[C@H](C(=O)N1CC2(CC2)C[C@H]1c1nc(-c2ccc3c(c2)C(F)(F)c2cc(-c4ccc5[nH]c([C@@H]6[C@H]7CC[C@H](C7)N6C(=O)[C@@H](NC(=O)OC)C(C)C)nc5c4)ccc2-3)c[nH]1)C(C)C` [Ledipasvir (GS 5885)], the IC50 cell viability is, setting by setting: (ICRF193 0 nM) over 45.8 µM; (ICRF193 200 nM) over 45.8 µM.

Regarding `CC#C[C@]1(O)CC[C@H]2[C@@H]3C[C@H](C)C4=CC(=O)CC[C@]4(C)[C@H]3CC[C@@]21C` [Dimethisteron], the IC50 cell viability is over 45.8 µM (ICRF193 0 nM) and over 45.8 µM (ICRF193 200 nM).

Consider `Cc1cc(O)c(C(C)C)cc1Cl` [6-Chlorothymol], for which the IC50 cell viability was over 45.8 µM (ICRF193 0 nM) and over 45.8 µM (ICRF193 200 nM).

For `CCC(C)(C)OC(=O)N[C@@H](Cc1c[nH]c2ccccc12)C(=O)N[C@@H](CCSC)C(=O)N[C@@H](CC(=O)O)C(=O)N[C@@H](Cc1ccccc1)C(N)=O` [Amogastrin], the IC50 cell viability runs as follows: (ICRF193 0 nM) over 45.8 µM; (ICRF193 200 nM) over 45.8 µM.

With `NC(CO)C(=O)NNCc1ccc(O)c(O)c1O` (stereo not drawn) [Benserazide], the IC50 cell viability runs as follows: (ICRF193 0 nM) over 45.8 µM; (ICRF193 200 nM) over 45.8 µM.

Regarding `CC(C)(C(=O)c1cccnc1)c1cccnc1` [Metyrapone], the IC50 cell viability is, setting by setting: (ICRF193 0 nM) over 45.8 µM; (ICRF193 200 nM) over 45.8 µM.

Consider `O=C(O)c1ccccc1Nc1cc(Cl)ccc1C(=O)O` [Lobenzarit sodium], for which the IC50 cell viability runs as follows: (ICRF193 0 nM) over 45.8 µM; (ICRF193 200 nM) over 45.8 µM.

As for `O=C(O)CCCN1CCC(O[C@@H](c2ccc(Cl)cc2)c2ccccn2)CC1` [Bepotastine (Beslilate)], the IC50 cell viability (ICRF193 0 nM) is over 45.8 µM and the IC50 cell viability (ICRF193 200 nM) was over 45.8 µM.

Turning to `O=C(N[C@H]1N=C(c2ccccc2F)c2cccc3c2N(CC3)C1=O)c1cc2ccccc2[nH]1` [Pranazepide], the IC50 cell viability by setting is: (ICRF193 0 nM) over 45.8 µM; (ICRF193 200 nM) over 45.8 µM.

Take `CCc1cc2c(s1)-n1c(C)nnc1CN=C2c1ccccc1Cl` [Etizolam]: the IC50 cell viability was over 45.8 µM (ICRF193 0 nM) and over 45.8 µM (ICRF193 200 nM).

As to `CCCCC(CC)COC(=O)c1ccc(N(C)C)cc1` (stereo not drawn) [2-Ethylhexyl 4-(dimethylamino)benzoate], the IC50 cell viability is, setting by setting: (ICRF193 0 nM) over 45.8 µM; (ICRF193 200 nM) over 45.8 µM.

For `Cc1ccccc1N1C(=O)c2cc(S(N)(=O)=O)c(Cl)cc2NC1C` (stereo not drawn) [Metolazone], the IC50 cell viability (ICRF193 0 nM) is over 45.8 µM and the IC50 cell viability (ICRF193 200 nM) is over 45.8 µM.

As to `CC(=O)CC/C=C(\C)CC/C=C(\C)CC/C=C(\C)CCC=C(C)C` [Teprenone], the IC50 cell viability runs as follows: (ICRF193 0 nM) over 45.8 µM; (ICRF193 200 nM) over 45.8 µM.

In the case of `COc1ccc(CC2c3cc(OC)c(OC)cc3CC[N+]2(C)CCC(=O)OCCCCCOC(=O)CC[N+]2(C)CCc3cc(OC)c(OC)cc3C2Cc2ccc(OC)c(OC)c2)cc1OC` (stereo not drawn) [Atracurium besylate], the IC50 cell viability (ICRF193 0 nM) was over 45.8 µM and the IC50 cell viability (ICRF193 200 nM) is over 45.8 µM.

`CCCOC(=O)c1ccccc1` [Propyl benzoate]: the IC50 cell viability (ICRF193 0 nM) is over 45.8 µM and the IC50 cell viability (ICRF193 200 nM) was over 45.8 µM.

Take `COCC(=O)Nc1cc(Sc2ccccc2)ccc1N=C(NC(=O)OC)NC(=O)OC` [Febantel]: the IC50 cell viability runs as follows: (ICRF193 0 nM) over 45.8 µM; (ICRF193 200 nM) over 45.8 µM.

With `O=C(Nc1ccccc1)OCC(CN1CCCCC1)OC(=O)Nc1ccccc1` (stereo not drawn) [Diperodon hydrochloride], the IC50 cell viability is over 45.8 µM (ICRF193 0 nM) and over 45.8 µM (ICRF193 200 nM).

Compound `C=Cc1ccccc1` [Styrene] returned an IC50 cell viability (ICRF193 0 nM) of over 45.8 µM and an IC50 cell viability (ICRF193 200 nM) of over 45.8 µM.

Turning to `CN(C)CCn1nnnc1SCC1=C(C(=O)O)N2C(=O)[C@@H](NC(=O)Cc3csc(N)n3)[C@H]2SC1` [Cefotiam hydrochloride], the IC50 cell viability was over 45.8 µM (ICRF193 0 nM) and over 45.8 µM (ICRF193 200 nM).

The compound `CCN1CC(CCN2CCOCC2)C(c2ccccc2)(c2ccccc2)C1=O` (stereo not drawn) [Doxapram hydrochloride] showed an IC50 cell viability (ICRF193 0 nM) of over 45.8 µM and an IC50 cell viability (ICRF193 200 nM) of over 45.8 µM.

In the case of `CCn1c(=O)c2c(nc(/C=C/c3ccc(OC)c(OC)c3)n2C)n(CC)c1=O` [Istradefylline], the IC50 cell viability was over 45.8 µM (ICRF193 0 nM) and over 45.8 µM (ICRF193 200 nM).

For `O=C1c2c(O)cccc2Cc2cccc(O)c21` [Anthralin], the IC50 cell viability is over 45.8 µM (ICRF193 0 nM) and over 45.8 µM (ICRF193 200 nM).

Consider `CCCCC(=O)O[C@]1(C(=O)CO)[C@@H](C)C[C@H]2[C@@H]3CCC4=CC(=O)C=C[C@]4(C)[C@@]3(F)[C@@H](O)C[C@@]21C` [Betamethasone valerate], for which the IC50 cell viability reads like this: (ICRF193 0 nM) over 45.8 µM; (ICRF193 200 nM) over 45.8 µM.

As for `Cc1ccc(/C=N/n2c(-c3ccccc3)csc2=S)cc1` [Fezatione], the IC50 cell viability was over 45.8 µM (ICRF193 0 nM) and over 45.8 µM (ICRF193 200 nM).
